# In patent publication US12577213B2 (NINGBO COMBIREG PHARMACEUTICAL TECHNOLOGY CO., LTD., priority 2020, dated 2026):
# What was measured:
# [1] = tested on: A549 (non-small cell lung cancer); test: NCI method SRB growth inhibition, A549; format: cell-based; details: Homo sapiens; A549, treated 48 hours, SRB stain
# Excerpt: (§1) In this embodiment, the method of National Cancer Institute (NCI) was used to evaluate the anti-tumor activity of the embodiment compounds in the present disclosure. Nine representative cell lines were selected for activity evaluation, including A549 (non-small cell lung cancer), HCT116 (colon cancer), SF295 (central nervous system tumor), LOX-IMVI (melanoma), 786-0 (renal cancer), K562 (leukemia), PC-3 (prostate cancer), OVCAR-3 (ovarian cancer) and HS 578T (breast cancer).
# (§2) The specific method was as follows: 60 tumor cell lines of 9 kinds of human cancers were used to evaluate the inhibitory activity of the compound in vitro. A test group, a parallel control group and a vehicle control group were set up. The parallel control group was fixed immediately before the compound was added; the cells in the test group were fixed after being treated with the compound for 48 hours; the vehicle control group was fixed after an equal volume of complete medium was added for 48 hours. Sulforhodamine B (SRB) was used to stain, and the OD value was measured at a wavelength of 515 nm. The specific calculation method was as follows: the OD value of the parallel control group was recorded as Tz, the OD value of the vehicle control group was recorded as C, and the OD value of the test group was recorded as (Ti). If Ti≥Tz, it means that the cells still grow after the drug was added, and the growth rate %=[(Ti−Tz)/(C−Tz)]×100; if Ti<Tz, it means that the cells are killed after the drug was added, and the growth rate %=[(Ti−Tz)/Tz]×100. Three parameters were used to evaluate the anti-tumor activity of compounds in this method: 50% growth inhibitory concentration (GI50): i.e. the compound concentration at [(Ti−Tz)/(C−Tz)]×100=50; complete growth inhibitory concentration (TGI): the compound concentration at Ti=Tz; the drug concentration required to kill 50% of the cells (LC50): i.e. the compound concentration at [(Ti−Tz)/Tz]×100=−50.
# (§3) The inhibitory activities of the embodiment compounds on nine representative tumor cell lines were listed in detail in Table 1. Wherein, the GI50 value means “50% growth inhibition rate”, that is, the concentration of the compound to be tested when it can inhibit […] of cell growth; “ND” means not detected.
# [2] = tested on: HCT116 (colon cancer); test: NCI method SRB growth inhibition, HCT116; format: cell-based; details: Homo sapiens, HCT-116; HCT116, treated 48 hours, SRB stain
# Excerpt: as §1, §2, §3
# [3] = Liver microsomes stability; format: in vitro ADME, human; details: 1 μM compound, 1 mg/mL human liver microsomes, 1 mM NADPH; for half-life at 1 μM: human, human liver microsomes, read-out: T½ of HLM
# Procedure: The compound to be tested with final concentration of 1 μM was incubated with 1 mg/mL of human liver microsomes and 1 mM of NADPH, and a group without NADPH was set as a negative control. The reaction mixture was quenched with methanol at five time points of 0, 5, 15, 30 and 60 min, respectively, then centrifuged at 2500 rpm for 20 min to precipitate proteins, and the resulting supernatant was analyzed by LC-MS/MS. The data was analyzed and the k value and half-life T1/2 was calculated, T1/2(min)=0.693/k.
# Wherein, compounds a, b and c are active compounds disclosed in patent No. ZL201610154581.3.
# [4] = tested on: OVCAR-3 (ovarian cancer); test: NCI method SRB growth inhibition, OVCAR-3; format: cell-based; details: Homo sapiens; OVCAR-3, treated 48 hours, SRB stain
# Excerpt: as §1, §2, §3
# [5] = tested on: 786-0 (renal cancer); test: NCI method SRB growth inhibition, 786-0; format: cell-based; details: Homo sapiens; 786-0, treated 48 hours, SRB stain
# Excerpt: as §1, §2, §3
# [6] = tested on: PC-3 (prostate cancer); test: NCI method SRB growth inhibition, PC-3; format: cell-based; details: Homo sapiens; PC-3, treated 48 hours, SRB stain
# Excerpt: as §1, §2, §3
# [7] = tested on: LOX-IMVI (melanoma); test: NCI method SRB growth inhibition, LOX-IMVI; format: cell-based; details: Homo sapiens, treated 48 hours, SRB stain
# Excerpt: as §1, §2, §3
# [8] = tested on: K562 (leukemia); test: NCI method SRB growth inhibition, K562; format: cell-based; details: Homo sapiens; K562, treated 48 hours, SRB stain
# Excerpt: as §1, §2, §3
# [9] = tested on: SF295 (central nervous system tumor); test: NCI method SRB growth inhibition, SF295; format: cell-based; details: Homo sapiens, SF-295; SF295, treated 48 hours, SRB stain
# Excerpt: as §1, §2, §3
# [10] = tested on: HS 578T (breast cancer); test: NCI method SRB growth inhibition, HS 578T; format: cell-based; details: Homo sapiens, HS578T, treated 48 hours, SRB stain
# Excerpt: as §1, §2, §3
Structure (SMILES),microsomal CLint at 1 μM [3] [µL/min/mg],half-life at 1 μM [3] [min],T½ of HLM [3] [min],GI50 [1] [nM],GI50 [2] [nM],GI50 [4] [nM],GI50 [5] [nM],GI50 [6] [nM],GI50 [7] [nM],GI50 [8] [nM],GI50 [9] [nM],GI50 [10] [nM]
"[2H]C([2H])([2H])c1c(OC)cc(C(=O)Nc2cc3c(cc2Oc2cc(C)cc(C)c2)C(=O)N[C@@H](CC(=O)N(CC)CC)C(=O)N3)c(Cl)c1OC [Compound 3, (S)-2-chloro-N-[3-[2-(diethylamino)-2-oxoethyl]-7-(3,5-dimethylphenoxy)-2,5-dioxo-2,3,4,5-tetrahydro-1H-benzo[e][1,4]diazepin-8-yl]-3,5-dimethoxy-4-(trideuteromethyl)benzamide]",18.1,38,38.3,< 5,11.2,28.6,110,43.9,18.4,8.4,53.2,91.9
"[2H]C([2H])([2H])Oc1cc(C(=O)Nc2cc3c(cc2Oc2cc(C)cc(C)c2)C(=O)N[C@@H](CC(=O)N(CC)CC)C(=O)N3)c(Br)c(OC([2H])([2H])[2H])c1OC([2H])([2H])[2H] [Compound 4, (S)-2-bromo-N-[3-[2-(diethylamino)-2-oxoethyl]-7-(3,5-dimethylphenoxy)-2,5-dioxo-2,3,4,5-tetrahydro-1H-benzo[e][1,4]diazepin-8-yl]-3,4,5-tris(trideuteromethoxy)benzamide]",20.5,33.8,–,< 5,< 5,< 5,11.9,< 5,< 5,< 5,6,–
"[2H]C([2H])([2H])N(C(=O)C[C@H]1C(=O)Nc2cc(NC(=O)c3cc(OC)c(OC)c(OC)c3Br)c(Oc3cc(C)cc(C)c3)cc2C(=O)N1C)C([2H])([2H])[2H] [Compound 15, (S)-2-bromo-N-[3-[2-[bis(trideuteromethyl)amino]-2-oxoethyl]-7-(3,5-dimethylphenoxy)-4-methyl-2,5-dioxo-2,3,4,5-tetrahydro-1H-benzo[e][1,4]diazepin-8-yl]-3,4,5-trimethoxybenzamide]",10.8,64.2,–,< 5,–,< 5,6.2,< 5,< 5,< 5,< 5,–
"[2H]C([2H])([2H])N(C(=O)C[C@@H]1NC(=O)c2cc(Oc3cc(C)cc(C)c3)c(NC(=O)c3cc(OC)c(OC)c(OC)c3Br)cc2NC1=O)C([2H])([2H])[2H] [Compound 22, (S)-2-bromo-N-[3-[2-[bis(trideuteromethyl)amino]-2-oxoethyl]-7-(3,5-dimethylphenoxy)-2,5-dioxo-2,3,4,5-tetrahydro-1H-benzo[e][1,4]diazepin-8-yl]-3,4,5-trimethoxybenzamide]",4.6,151,–,< 5,7.1,< 5,12.6,< 5,< 5,< 5,10,–

# Second part, led by results:
microsomal CLint at 1 μM [3] [µL/min/mg],half-life at 1 μM [3] [min],T½ of HLM [3] [min],Structure (SMILES),GI50 [1] [nM],GI50 [2] [nM],GI50 [4] [nM],GI50 [5] [nM],GI50 [6] [nM],GI50 [7] [nM],GI50 [8] [nM],GI50 [9] [nM],GI50 [10] [nM]
32,21.7,–,"[2H]C([2H])([2H])Oc1c(OC)cc(C(=O)Nc2cc3c(cc2Oc2cc(C)cc(C)c2)C(=O)N[C@@H](CC(=O)N(CC)CC)C(=O)N3)c(Cl)c1OC [Compound 2, (S)-2-chloro-N-[3-[2-(diethylamino)-2-oxoethyl]-7-(3,5-dimethylphenoxy)-2,5-dioxo-2,3,4,5-tetrahydro-1H-benzo[e][1,4]diazepin-8-yl]-3,5-dimethoxy-4-(trideuteromethoxy)benzamide]",13.1,< 5,6.1,11.8,5.5,< 5,< 5,7.9,30.8
26.4,26.3,–,"CCN(CC)C(=O)C[C@@H]1NC(=O)c2cc(Oc3cc(C)cc(C)c3)c(NC(=O)c3cc(OC)c(OC)c(OC)c3Br)cc2NC1=O [b, reference compound]",–,–,–,–,–,–,–,–,–
26.5,26.2,–,"CCN(CC)C(=O)C[C@@H]1NC(=O)c2cc(Oc3cc(C)cc(C)c3)c(NC(=O)c3cc(OC)c(OC)c(OC)c3Cl)cc2NC1=O [c, reference compound]",–,–,–,–,–,–,–,–,–
